Columns and labels:
mouse gut microbiome = test: Mouse gut microbiome diversity in fecal pellets; format: in vivo, C57BL/6 mice; settings: same regimens; day −1 vs day 7 (and 14)
E. faecium NR-31909 = test: Multi-step resistance selection assay; format: cell-based; settings: after five passages

| SMILES | change in beta diversity (Bray-Curtis dissimilarity), pre- vs post-treatment (mouse gut microbiome) | MIC increase (E. faecium NR-31909) |
| --- | --- | --- |
| CCC[C@@H]1C[C@@H](C(=O)N[C@@H]([C@H]2O[C@H](SC)[C@H](O)[C@@H](O)[C@H]2O)[C@H](C)Cl)N(C)C1 [clindamycin] | significant change | – |
| CO[C@H]1/C=C/O[C@@]2(C)Oc3c(C)c(O)c4c(O)c(c(/C=N/N5CCN(C)CC5)c(O)c4c3C2=O)NC(=O)/C(C)=C\C=C\[C@H](C)[C@H](O)[C@@H](C)[C@@H](O)[C@@H](C)[C@H](OC(C)=O)[C@@H]1C [rifampicin] | – | 8 fold MIC |
